Laboratory results reported in PMC4004260 (Biochemistry, 2014).

Key:
[1] = test system: gpASNase3 (guinea pig L-asparaginase type III); assay: NADH-coupled spectrophotometric assay; assay type: biochemical, Cavia porcellus; conditions: glycine-activated (cleaved) enzyme; Tris pH 7.5, 37 °C
[2] = molecular target: cleaved gpASNase3 protomer (α- and β-subunit), Asp-bound (Cavia porcellus (guinea pig)); assay: crystal structure

Compound	Km [1] [µM]	stoichiometry N [2]
N[C@@H](CC(=O)N[C@@H](Cc1ccccc1)C(=O)O)C(=O)O [β-L-Asp-L-Phe]	410 ± 30	–
cleaved gpASNase3 protomer (α- and β-subunit), Asp-bound (complex)	–	2
NC(=O)C[C@H](N)C(=O)O [L-Asn]	2240 ± 140	–
